Results: patent US20190151241A1, “STABLE PHARMACEUTICAL INJECTABLE COMPOSITIONS OF MICAFUNGIN” (CADILA HEALTHCARE LIMITED, priority 2017, published 2019)
Starred links: 1 amine or outer side, 2 acyl side, 3 side chain; linkers in the order of their positions; H or OH if unused. Positions of bridges follow the written chain, without caps; N, C: chain ends. Non-standard residues stand in square brackets, D forms with d. Residues, ends and D or L forms follow the SMILES beside them. ξ: configuration not given here. *: point of attachment. hTyr(3S-OH,4S-OH,3'-OSO3H) = N[C@H](C(=O)O)[C@H](O)[C@@H](O)c1ccc(O)c(OS(=O)(=O)O)c1; Orn(4R-OH,5R-OH) = O=C([C@H](C[C@@H](O)[C@@H](O)N[*:3])N[*:1])[*:2]; Pro(3S-OH,4S-Me) = C[C@H]1CN[C@H](C(=O)O)[C@H]1O; X1 = CCCCCOc1ccc(-c2cc(-c3ccc(C(=O)*)cc3)no2)cc1; Gln(3R-OH) = NC(=O)C[C@@H](O)[C@H](N)C(=O)O; Hyp = O=C(O)[C@@H]1C[C@@H](O)CN1; ξThr(3R) = C[C@@H](O)C(N)C(=O)O

Assay: Inventors' finding on stability of micafungin in liquid state
Assay type: physicochemical

CCCCCOc1ccc(-c2cc(-c3ccc(C(=O)N[C@H]4C[C@@H](O)[C@@H](O)NC(=O)[C@@H]5[C@@H](O)[C@@H](C)CN5C(=O)[C@H]([C@H](O)CC(N)=O)NC(=O)[C@H]([C@H](O)[C@@H](O)c5ccc(O)c(OS(=O)(=O)O)c5)NC(=O)[C@@H]5C[C@@H](O)CN5C(=O)C([C@@H](C)O)NC4=O)cc3)no2)cc1 (stereo partly drawn) [micafungin, Micafungin] (X1-[Orn(4R-OH,5R-OH)][ξThr(3R)][Hyp][hTyr(3S-OH,4S-OH,3'-OSO3H)][Gln(3R-OH)][Pro(3S-OH,4S-Me)]; lactam 1-C)
Stability in liquid state: heat sensitive and shows temperature dependant degradation in liquid state
